Laboratory results reported in patent US10961236B2, “(S)-2-(1-cyclopropylethyl)-5-(4-methyl-2-((6-(2-oxopyrrolidin-1-yl)pyridin-2-yl)amino) thiazol-5-yl)-7-(methylsulfonyl)isoindolin-1-one as a phosphatidylinositol 3-kinase inhibitor” (AstraZeneca AB, priority 2016, dated 2021).

Key:
Assay type in all cases: biochemical
[1] = biological target: recombinant human PI3Kγ ((aa144-1102)-6His) (Homo sapiens (Human), UniProt P48736); test: Enzymatic activity assay for recombinant human PI3Kγ (ADP-Glo); conditions: 1.2 nM PI3Kγ, 20 μM ATP, 80 μM DiC8-PIP2, ADP-Glo
Chain of recombinant human PI3Kγ ((aa144-1102)-6His) (P48736 144-1102): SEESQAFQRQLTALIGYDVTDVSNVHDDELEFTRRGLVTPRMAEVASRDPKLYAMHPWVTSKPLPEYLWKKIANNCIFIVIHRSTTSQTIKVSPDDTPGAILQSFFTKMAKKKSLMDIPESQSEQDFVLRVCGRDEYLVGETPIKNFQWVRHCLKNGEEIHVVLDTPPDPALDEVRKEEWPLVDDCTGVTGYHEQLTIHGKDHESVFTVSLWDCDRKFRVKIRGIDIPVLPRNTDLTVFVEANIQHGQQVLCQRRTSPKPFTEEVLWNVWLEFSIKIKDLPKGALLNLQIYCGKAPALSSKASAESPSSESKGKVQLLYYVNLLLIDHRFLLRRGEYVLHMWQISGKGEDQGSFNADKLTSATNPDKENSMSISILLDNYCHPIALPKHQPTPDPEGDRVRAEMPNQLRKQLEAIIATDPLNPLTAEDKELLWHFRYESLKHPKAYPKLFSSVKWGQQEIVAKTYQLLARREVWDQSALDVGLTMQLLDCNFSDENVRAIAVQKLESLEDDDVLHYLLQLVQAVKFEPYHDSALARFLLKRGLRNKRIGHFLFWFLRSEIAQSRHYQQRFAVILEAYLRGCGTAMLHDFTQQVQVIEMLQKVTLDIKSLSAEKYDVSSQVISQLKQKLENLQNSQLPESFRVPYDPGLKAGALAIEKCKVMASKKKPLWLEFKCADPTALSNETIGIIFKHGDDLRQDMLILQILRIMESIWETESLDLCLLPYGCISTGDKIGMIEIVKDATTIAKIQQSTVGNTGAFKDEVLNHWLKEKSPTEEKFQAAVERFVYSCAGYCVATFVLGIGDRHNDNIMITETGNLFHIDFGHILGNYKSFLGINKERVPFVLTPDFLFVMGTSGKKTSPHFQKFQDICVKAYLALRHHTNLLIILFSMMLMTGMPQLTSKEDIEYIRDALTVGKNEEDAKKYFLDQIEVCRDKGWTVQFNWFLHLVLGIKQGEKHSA
Procedure: (§1) Enzymatic Activity Assay for Recombinant Human PI3K α, β, δ and γ.
(§2) The activity of recombinant human PI3Kγ ((aa144-1102)-6His) and PI3Kα, β, δ (6-His(p110-p85α)) was determined by measuring the ADP level after phosphorylation of DiC8-PIP2 using a commercially available ADP-Glo™ kit from Promega. The assay was carried out in white low volume 384 well plates in a final volume of 14 μl at R.T. The assay conditions contained the following: 50 mM Tris buffer pH 7.4, 2.1 mM DTT, 3 mM MgCl2, 0.05% CHAPS, 20 μM ATP, 80 μM DiC8-PIP2 and 1.2 nM PI3Kα, β, γ or 0.6 nM PI3Kδ. […] Routinely, inhibitors were pre-incubated with 3 μl of enzyme for 15 min prior to the addition of 2 μl substrate mixture for a further 60 min enzyme reaction. The phosphorylation was stopped with the addition of 3 μl ADP-Glo™ reagent (stop solution) followed by a 40 min incubation. Prior to detection 6 μl of ADP-Glo™ Kinase Detection Reagent was added and the plates were read in a micro plate reader using a Luminescence filter. All additions were followed by a short centrifugation step.

[2] = biological target: recombinant human PI3Kα (6-His(p110-p85α)) (Homo sapiens (Human), UniProt P42336); test: Enzymatic activity assay for recombinant human PI3Kα (ADP-Glo); conditions: 1.2 nM PI3Kα, 20 μM ATP, 80 μM DiC8-PIP2, ADP-Glo
Chain of recombinant human PI3Kα (6-His(p110-p85α)) (P42336 whole entry): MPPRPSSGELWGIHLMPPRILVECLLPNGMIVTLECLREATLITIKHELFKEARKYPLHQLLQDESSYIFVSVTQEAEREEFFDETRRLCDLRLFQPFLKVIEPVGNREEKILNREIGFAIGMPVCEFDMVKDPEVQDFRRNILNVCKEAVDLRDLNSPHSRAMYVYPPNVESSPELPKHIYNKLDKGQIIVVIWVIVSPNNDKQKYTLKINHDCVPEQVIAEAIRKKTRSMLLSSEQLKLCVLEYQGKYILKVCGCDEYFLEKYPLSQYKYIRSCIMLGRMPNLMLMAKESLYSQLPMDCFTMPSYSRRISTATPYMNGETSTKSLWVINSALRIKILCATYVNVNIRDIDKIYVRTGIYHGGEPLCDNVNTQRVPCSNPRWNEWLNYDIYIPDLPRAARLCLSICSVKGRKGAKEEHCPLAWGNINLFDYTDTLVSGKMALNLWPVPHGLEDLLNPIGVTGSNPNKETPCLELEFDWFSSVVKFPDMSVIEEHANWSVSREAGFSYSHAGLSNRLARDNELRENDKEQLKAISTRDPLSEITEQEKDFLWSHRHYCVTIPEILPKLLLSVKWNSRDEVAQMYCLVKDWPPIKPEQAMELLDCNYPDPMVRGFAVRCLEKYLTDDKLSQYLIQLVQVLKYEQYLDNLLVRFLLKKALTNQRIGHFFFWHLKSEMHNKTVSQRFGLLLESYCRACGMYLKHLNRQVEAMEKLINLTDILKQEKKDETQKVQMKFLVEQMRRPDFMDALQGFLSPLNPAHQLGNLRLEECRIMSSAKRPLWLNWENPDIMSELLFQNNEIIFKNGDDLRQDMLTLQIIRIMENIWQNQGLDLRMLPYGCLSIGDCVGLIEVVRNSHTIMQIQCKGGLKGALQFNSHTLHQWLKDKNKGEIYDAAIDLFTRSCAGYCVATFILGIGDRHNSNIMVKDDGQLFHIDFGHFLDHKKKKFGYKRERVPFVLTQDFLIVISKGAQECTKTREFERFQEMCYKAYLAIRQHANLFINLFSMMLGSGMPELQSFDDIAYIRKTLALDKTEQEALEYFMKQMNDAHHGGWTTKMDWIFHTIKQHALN
Chain of recombinant human PI3Kα (6-His(p110-p85α)) (P27986 whole entry partner): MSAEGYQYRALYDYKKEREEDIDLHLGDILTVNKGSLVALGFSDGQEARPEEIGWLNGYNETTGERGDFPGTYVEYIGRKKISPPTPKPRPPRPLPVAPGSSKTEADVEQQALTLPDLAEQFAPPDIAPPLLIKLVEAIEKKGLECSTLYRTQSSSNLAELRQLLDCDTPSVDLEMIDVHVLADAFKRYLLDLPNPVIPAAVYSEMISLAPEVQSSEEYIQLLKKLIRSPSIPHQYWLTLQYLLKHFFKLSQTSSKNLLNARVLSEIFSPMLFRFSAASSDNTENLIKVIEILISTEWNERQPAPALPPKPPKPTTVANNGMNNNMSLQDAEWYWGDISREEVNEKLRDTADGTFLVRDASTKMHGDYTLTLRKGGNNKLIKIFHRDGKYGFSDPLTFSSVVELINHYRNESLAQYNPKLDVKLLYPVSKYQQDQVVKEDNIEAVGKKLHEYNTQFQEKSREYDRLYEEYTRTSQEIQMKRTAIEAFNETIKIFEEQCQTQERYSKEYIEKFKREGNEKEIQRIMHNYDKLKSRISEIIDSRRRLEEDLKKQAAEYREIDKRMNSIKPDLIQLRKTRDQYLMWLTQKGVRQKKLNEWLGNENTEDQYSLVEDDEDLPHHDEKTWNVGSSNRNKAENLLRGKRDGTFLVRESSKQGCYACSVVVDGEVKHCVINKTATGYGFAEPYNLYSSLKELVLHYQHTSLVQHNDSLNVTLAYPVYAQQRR
Procedure: as §1
as §2, with “PI3Kδ. Potential inhibitors were made up in DMSO and then diluted in the assay to give a final concentration of not exceeding 1% (v/v) DMSO.” for “PI3Kδ.”

[3] = biological target: recombinant human PI3Kδ (6-His(p110-p85α)) (Homo sapiens (Human), UniProt O00329); test: Enzymatic activity assay for recombinant human PI3Kδ (ADP-Glo); conditions: 0.6 nM PI3Kδ, 20 μM ATP, 80 μM DiC8-PIP2, ADP-Glo
Chain of recombinant human PI3Kδ (6-His(p110-p85α)) (O00329 whole entry): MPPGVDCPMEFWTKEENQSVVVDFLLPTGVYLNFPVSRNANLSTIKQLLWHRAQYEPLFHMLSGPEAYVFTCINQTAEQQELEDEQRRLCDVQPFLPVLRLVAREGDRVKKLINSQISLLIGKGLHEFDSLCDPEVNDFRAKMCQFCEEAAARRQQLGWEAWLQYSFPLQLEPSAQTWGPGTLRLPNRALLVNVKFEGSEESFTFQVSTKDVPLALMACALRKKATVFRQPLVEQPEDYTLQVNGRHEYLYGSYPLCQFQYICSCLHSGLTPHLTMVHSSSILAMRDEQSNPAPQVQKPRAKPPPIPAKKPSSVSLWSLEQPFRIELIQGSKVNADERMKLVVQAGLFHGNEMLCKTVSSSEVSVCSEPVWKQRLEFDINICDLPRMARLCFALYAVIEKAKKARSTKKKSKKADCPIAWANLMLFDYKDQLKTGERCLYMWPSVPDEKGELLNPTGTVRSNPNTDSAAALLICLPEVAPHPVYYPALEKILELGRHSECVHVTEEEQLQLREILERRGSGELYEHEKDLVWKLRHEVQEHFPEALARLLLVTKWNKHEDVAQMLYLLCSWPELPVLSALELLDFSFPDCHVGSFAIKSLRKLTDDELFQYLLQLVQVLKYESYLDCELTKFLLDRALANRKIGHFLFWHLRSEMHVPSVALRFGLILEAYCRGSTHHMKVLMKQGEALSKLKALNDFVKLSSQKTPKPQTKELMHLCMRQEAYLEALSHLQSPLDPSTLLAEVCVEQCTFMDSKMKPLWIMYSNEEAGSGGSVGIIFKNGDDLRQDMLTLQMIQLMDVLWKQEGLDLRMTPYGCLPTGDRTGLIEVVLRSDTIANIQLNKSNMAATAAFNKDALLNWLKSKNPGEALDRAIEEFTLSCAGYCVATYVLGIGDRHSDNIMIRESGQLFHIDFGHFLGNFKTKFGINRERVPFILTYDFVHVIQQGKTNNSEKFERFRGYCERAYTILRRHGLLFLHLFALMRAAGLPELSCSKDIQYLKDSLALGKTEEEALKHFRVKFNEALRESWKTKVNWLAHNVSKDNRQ
Chain of recombinant human PI3Kδ (6-His(p110-p85α)) (P27986 whole entry partner): as the sequence (P27986 whole entry partner) above
Procedure: as §1, §2

[4] = biological target: recombinant human PI3Kβ (6-His(p110-p85α)) (Homo sapiens (Human), UniProt P42338); test: Enzymatic activity assay for recombinant human PI3Kβ (ADP-Glo); conditions: 1.2 nM PI3Kβ, 20 μM ATP, 80 μM DiC8-PIP2, ADP-Glo
Chain of recombinant human PI3Kβ (6-His(p110-p85α)) (P42338 whole entry): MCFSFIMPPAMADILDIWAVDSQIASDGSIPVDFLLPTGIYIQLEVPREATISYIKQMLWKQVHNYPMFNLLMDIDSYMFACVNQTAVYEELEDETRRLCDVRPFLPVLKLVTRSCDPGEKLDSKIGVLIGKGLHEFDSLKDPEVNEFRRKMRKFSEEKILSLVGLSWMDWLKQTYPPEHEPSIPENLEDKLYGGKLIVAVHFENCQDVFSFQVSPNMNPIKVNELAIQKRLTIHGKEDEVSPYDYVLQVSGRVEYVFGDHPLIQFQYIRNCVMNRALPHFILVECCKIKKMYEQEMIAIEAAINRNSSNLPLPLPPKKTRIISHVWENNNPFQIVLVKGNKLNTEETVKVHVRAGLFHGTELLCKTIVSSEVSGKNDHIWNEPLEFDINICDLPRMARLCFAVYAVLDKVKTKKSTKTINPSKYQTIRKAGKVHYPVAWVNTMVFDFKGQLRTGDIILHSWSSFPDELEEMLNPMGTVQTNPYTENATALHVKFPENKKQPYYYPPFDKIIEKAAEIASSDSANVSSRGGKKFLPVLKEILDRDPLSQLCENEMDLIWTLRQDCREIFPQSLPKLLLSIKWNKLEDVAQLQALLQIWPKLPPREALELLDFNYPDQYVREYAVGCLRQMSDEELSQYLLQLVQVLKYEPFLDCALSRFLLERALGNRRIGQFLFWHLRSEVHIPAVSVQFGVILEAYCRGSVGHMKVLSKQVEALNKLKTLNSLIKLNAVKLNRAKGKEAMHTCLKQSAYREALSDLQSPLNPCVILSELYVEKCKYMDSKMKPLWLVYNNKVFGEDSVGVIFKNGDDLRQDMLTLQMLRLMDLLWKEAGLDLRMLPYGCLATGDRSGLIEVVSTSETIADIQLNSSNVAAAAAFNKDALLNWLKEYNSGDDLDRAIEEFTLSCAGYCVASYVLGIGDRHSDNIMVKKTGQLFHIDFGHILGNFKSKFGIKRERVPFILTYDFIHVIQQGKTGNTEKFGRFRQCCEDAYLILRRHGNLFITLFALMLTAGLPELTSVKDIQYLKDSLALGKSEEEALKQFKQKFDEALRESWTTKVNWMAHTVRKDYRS
Chain of recombinant human PI3Kβ (6-His(p110-p85α)) (P27986 whole entry partner): as the sequence (P27986 whole entry partner) above
Procedure: as §1
as §2, with “PI3Kδ. Potential inhibitors were made up in DMSO and then diluted in the assay to give a final concentration of not exceeding 1% (v/v) DMSO.” for “PI3Kδ.”

Compound | IC50 [1] [nM] | IC50 [2] [nM] | IC50 [3] [nM] | IC50 [4] [nM]
CNS(=O)(=O)c1cc(-c2sc(Nc3cccc(N(C)C(=O)COC)n3)nc2C)cc2c1C(=O)N([C@@H](C)C1CC1)C2 [Example 14, N-{6-[(5-{2-[(1S)-1-Cyclopropylethyl]-7-(methylsulfamoyl)-1-oxo-2,3-dihydro-1H-isoindol-5-yl}-4-methyl-1,3-thiazol-2-yl)amino]pyridin-2-yl}-2-methoxy-N-methylacetamide] | 0.9 | 80 | 0.4 | 724
CNS(=O)(=O)c1cc(-c2sc(Nc3cccc(N(C)C(=O)[C@@H](C)OC)n3)nc2C)cc2c1C(=O)N([C@@H](C)C1CC1)C2 [Example 15, (2R)—N-{6-[(5-{2-[(1S)-1-Cyclopropylethyl]-7-(methylsulfamoyl)-1-oxo-2,3-dihydro-1H-isoindol-5-yl}-4-methyl-1,3-thiazol-2-yl)amino]pyridin-2-yl}-2-methoxy-N-methylpropanamide] | 1 | 89 | 1.2 | 1160
CNS(=O)(=O)c1cc(-c2sc(Nc3cccc(N(C)C(=O)[C@H](C)OC)n3)nc2C)cc2c1C(=O)N([C@@H](C)C1CC1)C2 [Example 16, (2S)—N-{6-[(5-{2-[(1S)-1-Cyclopropylethyl]-7-(methylsulfamoyl)-1-oxo-2,3-dihydro-1H-isoindol-5-yl}-4-methyl-1,3-thiazol-2-yl)amino]pyridin-2-yl}-2-methoxy-N-methylpropanamide] | 1.2 | 55 | 0.8 | 539
CCOCC(=O)N(C)c1cccc(Nc2nc(C)c(-c3cc4c(c(S(=O)(=O)NC)c3)C(=O)N([C@@H](C)C3CC3)C4)s2)n1 [Example 17, N-{6-[(5-{2-[(1S)-1-Cyclopropylethyl]-7-(methylsulfamoyl)-1-oxo-2,3-dihydro-1H-isoindol-5-yl}-4-methyl-1,3-thiazol-2-yl)amino]pyridin-2-yl}-2-ethoxy-N-methylacetamide] | 1.1 | 48 | 0.3 | 677
CCN(C(=O)COC)c1cccc(Nc2nc(C)c(-c3cc4c(c(S(=O)(=O)NC)c3)C(=O)N([C@@H](C)C3CC3)C4)s2)n1 [Example 18, N-{6-[(5-{2-[(1S)-1-Cyclopropylethyl]-7-(methylsulfamoyl)-1-oxo-2,3-dihydro-1H-isoindol-5-yl}-4-methyl-1,3-thiazol-2-yl)amino]pyridin-2-yl}-N-ethyl-2-methoxyacetamide] | 0.8 | 25 | 0.3 | 231
CNS(=O)(=O)c1cc(-c2sc(Nc3cccc(N4CCOCC4=O)n3)nc2C)cc2c1C(=O)N([C@@H](C)C1CC1)C2 [Example 20, 2-[(1S)-1-Cyclopropylethyl]-N-methyl-6-(4-methyl-2-{[6-(3-oxomorpholin-4-yl)pyridin-2-yl]amino}-1,3-thiazol-5-yl)-3-oxo-2,3-dihydro-1H-isoindole-4-sulfonamide] | 0.9 | 37 | 0.7 | 543
CNS(=O)(=O)c1cc(-c2sc(Nc3cccc(N4CCCOC4=O)n3)nc2C)cc2c1C(=O)N([C@@H](C)C1CC1)C2 [Example 21, 2-[(1S)-1-Cyclopropylethyl]-N-methyl-6-(4-methyl-2-{[6-(2-oxo-1,3-oxazinan-3-yl)pyridin-2-yl]amino}-1,3-thiazol-5-yl)-3-oxo-2,3-dihydro-1H-isoindole-4-sulfonamide] | 1.1 | 19 | 0.6 | 103
CNS(=O)(=O)c1cc(-c2sc(Nc3cccc(N4CCN(C)CC4=O)n3)nc2C)cc2c1C(=O)N([C@@H](C)C1CC1)C2 [Example 22, 2-[(1S)-1-Cyclopropylethyl]-N-methyl-6-(4-methyl-2-{[6-(4-methyl-2-oxopiperazin-1-yl)pyridin-2-yl]amino}-1,3-thiazol-5-yl)-3-oxo-2,3-dihydro-1H-isoindole-4-sulfonamide] | 1 | 38 | 1.3 | 328
CNS(=O)(=O)c1cc(-c2sc(Nc3cccc(N4CC(=O)N5CCC[C@H]5C4=O)n3)nc2C)cc2c1C(=O)N([C@@H](C)C1CC1)C2 [Example 23, 2-[(1S)-1-Cyclopropylethyl]-6-[2-({6-[(8aS)-1,4-dioxohexahydropyrrolo[1,2-a]pyrazin-2(1H)-yl]pyridin-2-yl}amino)-4-methyl-1,3-thiazol-5-yl]-N-methyl-3-oxo-2,3-dihydro-1H-isoindole-4-sulfonamide] | 1.3 | 368 | 19.4 | 4880
CNS(=O)(=O)c1cc(-c2sc(Nc3cccc(N4CCCS4(=O)=O)n3)nc2C)cc2c1C(=O)N([C@@H](C)C1CC1)C2 [Example 24, 2-[(1S)-1-Cyclopropylethyl]-6-(2-{[6-(1,1-dioxido-1,2-thiazolidin-2-yl)pyridin-2-yl]amino}-4-methyl-1,3-thiazol-5-yl)-N-methyl-3-oxo-2,3-dihydro-1H-isoindole-4-sulfonamide] | 0.9 | 42 | 0.4 | 897
CNS(=O)(=O)c1cc(-c2sc(Nc3cccc(N4CCCC4=O)n3)nc2C)cc2c1C(=O)N([C@@H](C)C(F)(F)F)C2 [Example 25, N-Methyl-6-(4-methyl-2-{[6-(2-oxopyrrolidin-1-yl)pyridin-2-yl]amino}-1,3-thiazol-5-yl)-3-oxo-2-[(2S)-1,1,1-trifluoropropan-2-yl]-2,3-dihydro-1H-isoindole-4-sulfonamide] | 1.1 | 70 | 0.7 | 505
CCNS(=O)(=O)c1cc(-c2sc(Nc3cccc(N(C)C(=O)COC)n3)nc2C)cc2c1C(=O)N([C@@H](C)C1CC1)C2 [Example 26, N-{6-[(5-{2-[(1S)-1-Cyclopropylethyl]-7-(ethylsulfamoyl)-1-oxo-2,3-dihydro-1H-isoindol-5-yl}-4-methyl-1,3-thiazol-2-yl)amino]pyridin-2-yl}-2-methoxy-N-methylacetamide] | 1.1 | 110 | 0.5 | 562
CCNS(=O)(=O)c1cc(-c2sc(Nc3cccc(N4CCOCC4=O)n3)nc2C)cc2c1C(=O)N([C@@H](C)C(F)(F)F)C2 [Example 27, N-Ethyl-6-(4-methyl-2-{[6-(3-oxomorpholin-4-yl)pyridin-2-yl]amino}-1,3-thiazol-5-yl)-3-oxo-2-[(2S)-1,1,1-trifluoropropan-2-yl]-2,3-dihydro-1H-isoindole-4-sulfonamide] | 0.9 | 65 | 0.7 | 178
Cc1nc(Nc2cccc(N3CCOCC3=O)n2)sc1-c1cc2c(c(S(=O)(=O)NC(C)C)c1)C(=O)N([C@@H](C)C(F)(F)F)C2 [Example 28, 6-(4-Methyl-2-{[6-(3-oxomorpholin-4-yl)pyridin-2-yl]amino}-1,3-thiazol-5-yl)-3-oxo-N-(propan-2-yl)-2-[(2S)-1,1,1-trifluoropropan-2-yl]-2,3-dihydro-1H-isoindole-4-sulfonamide] | 2.6 | 318 | 1.2 | 798
Cc1nc(Nc2cccc(N3CCCOC3=O)n2)sc1-c1cc2c(c(S(=O)(=O)NC(C)C)c1)C(=O)N([C@@H](C)C(F)(F)F)C2 [Example 29, 6-(4-Methyl-2-{[6-(2-oxo-1,3-oxazinan-3-yl)pyridin-2-yl]amino}-1,3-thiazol-5-yl)-3-oxo-N-(propan-2-yl)-2-[(2S)-1,1,1-trifluoropropan-2-yl]-2,3-dihydro-1H-isoindole-4-sulfonamide] | 2.2 | 47 | 0.5 | 62
